Consider one compound from US20250073209A1, “COVALENT TARGETING OF RhoA FOR CANCER THERAPY” (The University of Hong Kong, priority 2023, published 2025).

In test [1] the target is T1, RhoA (Homo sapiens, UniProt P61586). The test is described as follows: RhoA-GTP rhotekin pull-down in HT29 cells, complete medium. It is filed as cell-based. Further details: endogenous in cells; host or cells: HCT116, HT29. The conditions noted are these: HT29, complete medium 24 h. On the procedure: RhoA Pull-Down Activation Assay Biochem Kit (#BK036) was purchased from Cytoskeleton. According to the manufacturer's protocol, total cell lysate (0.5 mg/mL; 300 μL) was added to 7.5 μL of Rhotekin-Rho Binding Domain beads in 0.6 mL tubes. The solution mixture was incubated at 4° C. on an end-to-end rotator for 1 hour. Beads were washed with 500 μL of washing buffer once, then centrifuged at 5000g for 3 min and the supernatant was discarded. RhoA-GTP was then eluted in 2× laemmli buffer and resolved in 10% SDS-PAGE.
GTP loading onto RhoA is critical for the protein activation and mediating downstream signals. In view of the inhibitions of GDP-to-GTP exchange of RhoA by CL16 in vitro as discussed above, effects of CL16 on RhoA biology in colorectal cancer cells were examined. In the serum starvation-re-stimulation experiment, HCT116 cells were grown in serum-free medium with CL16, Rhosin or solvent control for 24 h, followed by stimulation with 10% FBS for 10 min. The cells were then lysed and the RhoA activity was assayed by the level of RhoA-GTP, which is the active form of RhoA. […] HT29 cells were incubated with solvent vehicle, CL16 or Rhosin in complete medium for 24 h. […] Confocal fluorescence images from HCT116 and HT29 cells expressing FRET RhoA-biosensor in the serum starvation-restimulation experiment were taken.

The target of test [2] is T1, RhoA. In words: Fluorescence-based assay of Dbs-mediated GTP binding onto RhoA. Particulars: increasing concentrations of CL16. It is filed as biochemical.
The subject of test [3] is HCT116 cells. In words: Gel ABPP in HCT116 cells with CL16-alkyne. It is filed as cell-based, human. On the procedure:
HCT116 and SW620 cells were plated onto 6-well plate at a density of 5×10^5 cells per well overnight. Then the cells were treated with CL16 at indicated concentration for 2 hours, followed by treatment with CL16-alkyne (1 μM) for 2 hours. After treatment, the cells were washed with PBS and lysed by probe sonication. Cell debris were removed by centrifugation at 5,000g for 10 min at 4° C. 50 μL of normalized protein lysates (2 mg/mL) were labeled with azide-fluor 545 by copper-catalyzed azide-alkyne cycloaddition at room temperature in dark for an hour. Then, the reaction was quenched by boiling in sampling buffer and samples were subjected to SDS-PAGE to separate proteins band for measuring in-gel fluorescence. After imaging, the gel was washed with MilliQ and incubated with Coomassie Blue stain with gentle shaking.
(§1) To identify protein target and any off-targets of CL16 in CRCs, a molecular probe of CL16, CL16-alkyne (FIG. 6A), was synthesized. […] The protein bands were then visualized by their in-gel fluorescence or blotted for RhoA. […] The probe-labeled proteins were installed with rhodamine through CuAAC, and visualized by their in-gel fluorescence after SDS-PAGE. A protein band with strong fluorescence was found at −22 kDa in the sample incubated with CL16-alkyne only, in line with the molecular weight of RhoA (FIG. 6C).

Test [4] deals with T2, FLAG-RhoA (Homo sapiens, UniProt P61586).
T2 construct: expressed in transfected cells; host or cells: HCT116
In words: CL16-alkyne labeling of FLAG-RhoA in HCT116 cells (anti-FLAG IP, CuAAC, in-gel fluorescence). It is filed as cell-based. Particulars: pre-incubation 2 h. The protocol: HCT116 cells transiently expressing FLAG-RhoA were pre-treated with solvent vehicle or CL16 for 2 h, followed by the incubation with CL16-alkyne in complete medium for another 2 h. The cells were then lysed and subjected to immunoprecipitation by anti-FLAG beads. The enriched proteins were reacted with rhodamine azide through copper-catalyzed azide-alkyne cycloaddition (CuAAC), boiled with sampling buffer and separated by SDS-PAGE. The protein bands were then visualized by their in-gel fluorescence or blotted for RhoA. […] HCT116 cells were pre-treated with solvent vehicle or CL16 for 2 h, followed by the incubation with CL16-alkyne in complete medium for another 2 h. The cells were then lysed, reacted with rhodamine azide through CuAAC, boiled with sampling buffer, separated by SDS-PAGE and imaged. […]
as §1

T1 sequence (P61586 whole entry, the tested form may be a part): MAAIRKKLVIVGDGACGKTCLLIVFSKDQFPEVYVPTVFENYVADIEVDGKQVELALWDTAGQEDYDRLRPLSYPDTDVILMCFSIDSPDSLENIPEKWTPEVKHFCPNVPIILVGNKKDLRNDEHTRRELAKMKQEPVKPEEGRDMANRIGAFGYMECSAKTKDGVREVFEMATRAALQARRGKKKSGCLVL
T2 sequence (P61586 whole entry): as the sequence (P61586 whole entry, the tested form may be a part) above

For `O=C(CCl)N1N=C(c2cc3ccccc3o2)CC1c1ccco1` (centres unmarked) [CL16], the “RhoA activity (RhoA-GTP)” value in test [1] is “specific inhibition of RhoA activity”. In test [2], the “kinetics of Dbs-mediated GTP binding onto RhoA” value is recorded as “significant decrease in the kinetics”. The “fluorescent protein band at 22 kDa labeled by CL16-alkyne” value in test [3] (CL16 pre-treatment at 10 μM) is reported as “complete abolishment of the protein band”. Also, the off-target binding entry in test [3] (HCT116 cells) is “minimal off-target binding”. Moreover, the “competition with CL16-alkyne labeling of FLAG-RhoA” value in test [4] is recorded as “competed with the alkyne probe labeling”.
